Source: patent US20170216360A1, “METHODS AND COMPOSITIONS FOR IMPROVING HOMING OF CELLS INCLUDING MESENCHYMAL STEM CELLS” (SANOFI, priority 2014, published 2017)
“Also recorded” adds a separate entry of the source. Where a name gives a salt, the structure may show the parent alone. Read-outs that look alike come from different tables or passages of the source.

Key:
[1] = system: CD11a surface expression on huMSCs; test: Medium throughput screen: CD11a surface expression on MSCs, PE-CY5 anti-CD11a antibody, laser-scanning fluorescence microplate cytometer; format: cell-based, human; parameters: key to Cell surface ligand CD11a (induction of expression): NA = negative activity result; A = positive activity result; settings: for EC50: read-out: Cell Surface Marker ED 50 (M) Molar Concentration of Compound for CD11a Expression
Experimental: An in vitro screen was performed for compounds that induce surface expression on huMSCs of the marker CD11a (LFA-1). This screen may be considered a medium throughput screen. Certain compounds that induce the increase of this surface marker were then selected for testing in an in vitro firm adhesion assay and/or in vivo systemic administration in an animal model of inflammation. The surface expression screen involved fluorophore-conjugated antibodies to the respective markers. Following pretreatment with the test compounds, samples of cells were incubated with the labeled antibodies for detection of surface marker expression and change relative to a reference level of untreated cells or negative control samples or values. Cells were pretreated with a concentration (3 μM) of each small molecule compound for 24 hours, followed by incubation with a fluorophore-conjugated anti-marker antibody to detect expression on MSC surface. Surface expression levels of marker ligands were then evaluated by laser-scanning fluorescence microplate cytometer. […] Cell viability in response to compounds was also tested to assess whether molecules have toxicity after 24 hours of pretreatment. Testing was performed on two different huMSC sources representing cells from different donors.
Further details of the screening approach are provided as follows. A unique single batch of bone marrow-derived MSC cells was prepared for the entire screening campaign by cell amplification using CellStack flasks and freezing in separate vials at passage P5. […] For each run, vials were thawed and cells directly seeded on 384-well plates at 3,000 cells per well in MSCGM medium. Following an overnight incubation, cells were treated with the indicated concentrations of compounds for 24 hours. Cells were washed in PBS, 3% BSA and incubated for one hour with PE-CY5-conjugated anti-CD11a monoclonal antibody (clone HI111). Expression of CD11a at the cell surface was detected using the Acumen Explorer, a laser-scanning fluorescence microplate cytometer after two PBS washings. HL-60 cells seeded at 10,000 cells per well and treated with 100 nM phorbol 12-myristate 13-acetate (PMA) for 24 h to induce cell adhesion were used as a positive control in each 384-well plate. Positive compounds were counter-screened for their auto-fluorescence by measuring the signal in the absence of antibody.
A single batch of bone marrow-derived MSC was prepared for the entire screening campaign by cell amplification using CellStack flasks and freezing in separate vials at passage P5. […] For each run, vials were thawed and cells directly seeded on 384-well plates at 3,000 cells per well in MSCGM medium. Following an overnight incubation, cells were pretreated with a low (0.1 μM) and high (3 μM) concentration of the compounds for 24 h. 9,000 cpds were tested in 112 assay plates, each 384-well plate contained 320 cpds (from column 5 to 24), one column for Max (Column2, HL60 cells) and one column for Min (Column4, MSC cells). Cells were washed in PBS, 3% BSA and incubated for one hour with PE-CY5-conjugated anti-CD11a monoclonal Ab (BD Biosciences). Expression of CD11a at the cell surface was detected after two PBS washes using the Acumen Explorer equipment, a laser-scanning fluorescence microplate cytometer. HL-60 cells (seeded at 10,000 cells per well and treated with 100 nM phorbol 12-myristate 13-acetate (PMA) for 24 h to induce cell adhesion) were used as a positive control in each 384-well plate. Positive compounds were counter-screened for their auto-fluorescence by measuring the signal in the absence of Ab. Shown in FIG. 4 is the global screening data. Using the Max, Min columns, we have calculated Max/Min ratio generated with CD11a Ab for each assay plate (signal/background ration in green columns was calculated for each of the 112 assay plates). […]

[2] = system: LPS-induced inflamed mouse ear; test: In vivo MSC homing to LPS-induced inflamed ear after systemic infusion, intravital microscopy; parameters: key to In vivo functional assay (homing): NA = negative activity result; A = positive activity result; settings: for Increase of MSC homing to inflamed ear (%): relative to untreated cells; for MSC homing to the inflamed ear in vivo, result in words: vs vehicle-treated control
Experimental: C57BL/6 mice (Charles River Laboratories, Wilmington, Mass.) were anesthetized with ketamine/xylazine and their ears shaved 24 h prior to cell infusion. To induce an inflammatory response, 30 μg of E. coli lipopolysaccharide (LPS, Sigma, St. Louis, Mo.) in 50 μL saline was injected into the pinna of the left ear, with 50 μL 0.9% saline injected into the right ear as a control. For in vivo dye sensitivity validation, 1×10e6 cells of each stain were suspended in 150 μL PBS (pH 7.4) and injected by retro-orbital vein infusion.
To evaluate the minimum number of cells needed for a reproducible response, each mouse (n=4) received a range of cell doses (10,000, 50,000, 100,000, or 500,000) each of cells stained with Dil or DiD with a dye switch (i.e., dyes used for experimental and control cells were alternated to prevent bias based on the dyes that were used). To evaluate the impact of small molecule hit pre-treatment on MSC homing to the inflamed ear, MSCs were incubated with 3 μM of the small molecule hit or 0.1% DMSO as a control for 24 h before staining and in vivo administration. To highlight the vasculature, 50 μL of 10 mg/mL FITC-dextran ([…]; Sigma, St. Louis, Mo.) was injected retro-orbitally prior to imaging.
In vitro staining and in vivo homing of stained MSCs to the skin was imaged noninvasively in real time using a custom-built video-rate laser-scanning confocal microscope designed specifically for live animal imaging. For in vivo imaging, the mouse ear was positioned under a coverslip with methylcellulose gel and images acquired at 30 frames per second at a depth up to 200 μm using a 60×1.0NA water immersion objective lens (Olympus, Center Valley, Pa.). DiO labeled MSCs were excited with a 491 nm continuous wave (CW) laser (Cobalt, Stockholm, Sweden), and detected through a 520±20 nm bandpass filter (Semrock, Inc., Rochester, N.Y.). Dil labeled MSCs were excited with a 561 nm CW laser (Coherent, Inc., Santa Clara, Calif.) and detected through a 593 nm±40 nm filter (Omega Optical, Brattleboro, Vt.). DiD labeled MSCs were excited with a 635 nm CW laser (Coherent, Inc., Santa Clara, Calif.) and detected through a 695 nm±27.5 nm band pass filter (Omega Optical, Brattleboro, Vt.). DiR labeled MSCs were excited using a femtosecond Ti:Sapphire Maitai source for single photon excitation at 750 nm (Spectra Physics, Santa Clara, Calif.) and collected through a 785 nm±31 nm band pass filter (Omega Optical, Brattleboro, Vt.).
For quantification, the average number of cells in 20 representative imaging locations across the inflamed region was counted in each mouse. Cells were defined as having a diameter from 10-30 μm to eliminate debris and clumps from analysis, and a primary channel intensity greater than 2 to eliminate autofluorescent events. The average relative detection sensitivity (ratio of Dil/DiD counts) determined in the overall dye efficiency experiments were used to scale the counts for DiD stained cells. […] For multiple comparisons, Tukey's HSD test was used. Error bars in graphs represent standard error, and statistical significance is denoted by * p<0.05.

[3] = MSCs pretreated 3 μM 24 h, 24 h after infusion

EC50 ([1]; Homo sapiens, pretreatment of huMSCs) [M] | EC50 ([1]; pretreatment of huMSCs, hydrochloride) [M] | Structure (SMILES) | CD11a surface expression on MSCs, result in words ([1]; 24 h pretreatment) | MSC homing to skin in the inflamed ear, average cells [2, 3] [cells/cm^2] | Increase of MSC homing to inflamed ear (%) [2] [%] | MSC homing to the inflamed ear in vivo, result in words [2] | CD11a surface expression on MSCs compared to HL-60 cells ([1]; 24 h pretreatment) | Cell surface ligand CD11a (induction of expression) ([1]; pretreatment of huMSCs) | Increase of MSC homing to inflamed ear compared to vehicle-treated MSCs [2, 3] [%] | Increased homing versus vehicle-treated MSCs, without CD11a blocking ([2]; inflamed ear) [%] | Increased homing versus vehicle-treated MSCs, CD11a blocked prior to infusion ([2]; inflamed ear, anti-human CD11a clone TS1/22) | Increase of MSC homing to inflamed ear (%) ([2]; hydrochloride) | In vivo functional assay (homing) ([2]; systemic administration of pretreated huMSCs)
> 3e-05 | – | CCc1c2c(nc3ccc(OC(=O)N4CCC(N5CCCCC5)CC4)cc13)-c1cc3c(c(=O)n1C2)COC(=O)[C@]3(O)CC [Compound 1927, reference compound] | did not increase | 47.2±20.4 | 0 | no impact; also recorded: did not affect MSC homing | – | – | – | – | – | – | –
– | 8e-07 | Cn1cc(C2=C(c3c4n(c5ccccc35)CCC(CN)C4)C(=O)NC2=O)c2ccccc21 (stereo not shown) [Compound 1929, 3-(8-aminomethyl-6,7,8,9-tetrahydro-pyrido[1,2-a]indol-10-yl)-4-(1-methyl-1H-indol-3-yl)-pyrrole-2,5-dione hydrochloride] | significant increase | 78.5±15.9 | – | significantly promoted MSC homing | two-fold higher | A | 69.3±11.3 | 70 | less than 10% | 73 | A
